Assay results as given in patent US8226966B2, “Fungicide N-6-membered fused (hetero) aryl-methylene-N-cycloalkyl carboxamide derivatives” (Bayer Cropscience AG, priority 2007, dated 2012).

Experiment: logP by HPLC on reversed-phase column (C 18), EEC Directive 79/831 Annex V.A8
Type: physicochemical
Details: 40° C., 0.1% aqueous formic acid and acetonitrile
Description: In the following table, the logP values were determined in accordance with EEC Directive 79/831 Annex V.A8 by HPLC (High Performance Liquid Chromatography) on a reversed-phase column (C 18), using the method described below: Temperature: 40° C.; Mobile phases: 0.1% aqueous formic acid and acetonitrile linear gradient from 10% acetonitrile to 90% acetonitrile. Calibration was carried out using unbranched alkan-2-ones (comprising 3 to 16 carbon atoms) with known logP values (determination of the logP values by the retention times using linear interpolation between two successive alkanones).

[1] = linear gradient from 10% to 90% acetonitrile
[2] = linear gradient 10% to 90% acetonitrile

LogP [1] | LogP [2] | Compound
4.39 | – | Cc1nn(C)c(F)c1C(=S)N(Cc1ccc2ccccc2c1Br)C1CC1 [Example 25]
3.68 | – | Cn1cc(C(=O)N(Cc2ccc3ccccc3c2Br)C2CC2)c(C(F)F)n1 [Example 26]
3.24 | – | COc1nn(C)cc1C(=O)N(Cc1ccc2ccccc2c1Br)C1CC1 [Example 27]
4.25 | – | COc1nn(C)cc1C(=S)N(Cc1ccc2ccccc2c1Br)C1CC1 [Example 28]
3.25 | – | Cc1ccc2ccccc2c1CN(C(=O)c1cn(C)nc1C(F)F)C1CC1 [Example 40]
3.62 | – | Cc1nn(C)c(F)c1C(=O)N(Cc1ccc(Br)c2ccccc12)C1CC1 [Example 54]
3.69 | – | Cn1cc(C(=O)N(Cc2ccc(Br)c3ccccc23)C2CC2)c(C(F)F)n1 [Example 55]
5.2 | – | Cc1cc(C(=O)N(C2CC2)C(C)c2ccc(Br)c3ccccc23)c(C)o1 (stereo not shown) [Example 60]
2.92 | – | COC(=O)C(c1cccc2ccccc12)N(C(=O)c1c(C)nn(C)c1F)C1CC1 (stereo not shown) [Example 63]
3.02 | – | COC(=O)C(c1cccc2ccccc12)N(C(=O)c1cn(C)nc1C(F)F)C1CC1 (stereo not shown) [Example 69]
2.86 | – | COc1nn(C)cc1C(=O)N(C1CC1)C(C)c1cccc2ccccc12 (stereo not shown) [Example 75]
– | 2.9 | Cc1nn(C)c(F)c1C(=O)N(Cc1ccc(Br)c2cccnc12)C1CC1 [Example 167]
– | 2.96 | COc1ccc2ccc(OC)c(CN(C(=O)c3c(C)nn(C)c3F)C3CC3)c2c1 [Example 222]
